Experiment [1] has as its system B16. Nature of the experiment: Inhibition of melanin production in alpha-MSH stimulated mouse B16 cells after 72 hrs by spectrophotometry. Type of experiment: functional, cell-based. Conditions: for IC50: B16, 72 h.
Experiment [2] has as its system B16. In words: Cytotoxicity against alpha-MSH stimulated mouse B16 cells after 72 hrs by MTT assay. Type of experiment: cell-based. To be noted: B16, 72 h. A general note: Tetrazolium dyes change colour on reduction, which living cells bring about.

Data on ten compounds can be found in ChEMBL document CHEMBL2385014, “Melanogenesis inhibitory daphnane diterpenoids from the flower buds of Daphne genkwa” (Bioorg Med Chem Lett, 2013).

The IC50 is the concentration that inhibits the measured activity by half. Higher therefore signals a need for much substance.

Molecules are shown by their SMILES.

On to `C=C(C)[C@]12C[C@@H](C)[C@@]34OC(c5ccccc5)(O[C@@H]1[C@@H]3[C@H](O)[C@](O)(CO)[C@@H](O)[C@@]1(O)[C@H]4C[C@H](C)[C@@H]1O)O2`, for which, in experiment [1], the inhibition result was “Dose-dependent effect” and the half-inhibitory concentration (IC50) turned out to be 9 µM. Moreover, the half-inhibitory concentration (IC50) in experiment [2] is greater than 30 µM.
On the same counts, the results for `C=C(C)[C@@]12OC3(/C=C/C=C/CCCCC)O[C@@H]1[C@@H]1[C@@H]4O[C@]4(CO)[C@@H](O)[C@]4(O)C(=O)C(C)=C[C@H]4[C@@]1(O3)[C@H](C)[C@H]2OC(=O)CC` are “Dose-dependent effect”, 0.19 µM and 28 µM.
On the same counts, the results for `C=C(C)[C@]12C[C@@H](C)[C@@]34OC(c5ccccc5)(O[C@@H]1[C@@H]3[C@H](O)[C@](O)(COC(=O)/C=C/C=C/CCCCC)[C@@H](O)[C@@]1(O)[C@H]4C[C@H](C)[C@@H]1O)O2` are “Dose-dependent effect”, 0.57 µM and greater than 30 µM.
On the same counts, the results for `C=C(C)[C@@]12O[C@@]3(/C=C/C=C/CCCCC)O[C@@H]1[C@@H]1[C@@H]4O[C@]4(CO)[C@@H](O)[C@]4(O)C(=O)C(C)=C[C@H]4[C@@]1(O3)[C@H](C)[C@H]2OC(=O)c1ccccc1` [GNIDILATIDIN] are “Dose-dependent effect”, 0.16 µM and greater than 30 µM.
Regarding `C=C(C)[C@@]12O[C@@]3(/C=C/C=C/CCCCC)O[C@@H]1[C@@H]1[C@@H]4O[C@]4(CO)[C@@H](O)[C@]4(O)C(=O)C(C)=C[C@H]4[C@@]1(O3)[C@H](C)[C@H]2OC(C)=O` [YUANHUADINE], in experiment [1], the inhibition entry was “Dose-dependent effect” and half-maximal inhibition (IC50) was put at 0.06 µM. This compound also yielded a 50% inhibitory concentration (IC50) in experiment [2] of 22 µM.
On the same counts, the results for `C=C(C)[C@]12C[C@@H](C)[C@@]34OC(c5ccccc5)(O[C@@H]1[C@@H]3[C@H](O)[C@](O)(COC(=O)c1ccccc1)[C@@H](O)[C@@]1(O)[C@H]4C[C@H](C)[C@@H]1O)O2` are “Dose-dependent effect”, 2 µM and greater than 30 µM.
For `C=C(C)[C@@]12OC3(C)O[C@@H]1[C@@H]1C=C(CO)C[C@]4(O)C(=O)C(C)=C[C@H]4[C@@]1(O3)[C@H](C)[C@H]2OC(C)=O`, in that order: “Dose-dependent effect”, 4.9 µM and greater than 30 µM.
`C=C(C)[C@@]12OC3(C)O[C@@H]1[C@@H]1C=C(CO)C[C@]4(O)C(=O)C(C)=C[C@H]4[C@@]1(O3)[C@H](C)[C@H]2OC(=O)c1ccccc1`: the 50% inhibitory concentration (IC50) in experiment [1] is 2.3 µM; in experiment [2] it was 6.6 µM.
For `C=C(C)[C@@]12OCO[C@@H]1[C@@H]1[C@@H]3O[C@]3(CO)[C@@H](O)[C@]3(O)C(=O)C(C)=C[C@H]3[C@@]1(Oc1ccccc1)[C@H](C)[C@H]2OC(=O)c1ccccc1` [GENKWADAPHNIN], in experiment [1], the inhibition entry was “Dose-dependent effect”. The half-inhibitory concentration (IC50) in experiment [1] is 0.18 µM; in experiment [2], greater than 30 µM.
The compound `OC[C@H]1O[C@@H](Oc2ccc(O)cc2)[C@H](O)[C@@H](O)[C@@H]1O` [ARBUTIN] gave an IC50 in experiment [1] of 140 µM.
